The values that follow come from patent publication USRE47141E1, “Methods of treating fibrosis, cancer and vascular injuries” (EWHA University—Industry Collaboration Foundation, priority 2010, dated 2018).

For the experiment, the target named is AKT1 (Homo sapiens (Human), UniProt P31749). Put plainly: Kinase selectivity profiling. It is filed as biochemical. The protocol: Kinase assays were performed in 96-well FlashPlates™ from Perkin Elmer in a […]. […] The reaction cocktail contained 70 mM HEPES-NaOH, pH 7.5, 3 mM MnCl2, 3 μM Na3VO4, 1.2 mM DTT, 1 μM [γ-^33P]-ATP (approximately 6×10^5 cpm per well), protein kinase (variable amounts), and substrate (variable amounts). The reaction cocktails were incubated at 30° C. for 60 min. The reaction was stopped with 50 μL of 2% (v/v) H3PO4, and plates were aspirated and washed two times with 200 μL 0.9% (w/v) NaCl. ALL assays were performed with a BeckmanCoulter Biomek 2000/SL robotic system. Incorporation of ^33Pi (counting of “cpm”) was determined with a microplate scintillation counter.
Chain of AKT1 (P31749 whole entry, species assumed): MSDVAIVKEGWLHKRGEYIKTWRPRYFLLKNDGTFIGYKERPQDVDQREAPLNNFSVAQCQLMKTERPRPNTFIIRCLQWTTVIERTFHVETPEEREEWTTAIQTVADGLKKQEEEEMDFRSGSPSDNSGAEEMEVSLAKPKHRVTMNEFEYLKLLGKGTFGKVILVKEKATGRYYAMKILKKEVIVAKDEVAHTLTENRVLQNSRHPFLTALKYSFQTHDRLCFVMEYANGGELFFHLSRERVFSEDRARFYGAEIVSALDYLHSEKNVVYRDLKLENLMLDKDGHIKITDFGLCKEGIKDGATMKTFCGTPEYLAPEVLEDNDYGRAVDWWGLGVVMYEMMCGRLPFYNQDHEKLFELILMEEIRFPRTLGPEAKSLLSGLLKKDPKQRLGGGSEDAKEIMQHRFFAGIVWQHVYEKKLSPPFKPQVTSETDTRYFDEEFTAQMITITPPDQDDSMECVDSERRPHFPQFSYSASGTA

For the compound `Cc1cccc(-c2[nH]c(CNc3ccccc3F)nc2-c2ccc3ncnn3c2)n1` [Example 2, N-((4-([1,2,4]triazolo[1,5-a]pyridin-6-yl)-5-(6-methylpyridin-2-yl)-1H-imidazol-2-yl)methyl)-2-fluoroaniline], the inhibition at 1 µM (read-out: % inhibition at 1 μM, 1 μM) came out at 0%. For the same compound, the inhibition at 10 µM (read-out: % inhibition at 10 μM, 10 μM) was 3%.
